Structures can show the parent of a compound that is named as a salt.
Experiments:
[1] = tested on: High fat diet-fed (HFD-fed) mice; assay: Fecal protein concentration-increasing test using HFD-fed mouse (Test Example 2-1); type: in vivo; settings: male, 19-week old, 10 mg/kg orally, whole feces of first day of administration, average ± standard deviation, six mice
Experimental: (§1) High fat diet-fed (HFD-fed) mice (D12079B diet, male, 19-week old) were orally administered with a 0.5% methyl cellulose suspension containing a test compound (10 mg/kg) (compound administration group, six mice per group) or a 0.5% methyl cellulose suspension (compound non-administration group (vehicle), five mice per group), and whole feces were collected on the first day of administration. Dried feces were dissolved in 0.5 N NaOH, followed by centrifugation at 12,000 rpm. The protein concentration in the supernatant was then quantitatively measured (Lowry method), and the amount of protein contained in 1 g of feces was calculated as the fecal protein concentration (mg/g feces). The average and the standard deviation of each group are shown below.

[2] = tested on: Diet-induced obesity (DIO) mice; assay: Anti-obesity effect test using DIO mouse (Test Example 3); type: in vivo; settings: male, 32-week old, average ± standard deviation, six mice
Experimental: Diet-induced obesity (DIO) mice (D12079B diet, male, 32-week old) were orally administered with a 0.5% methyl cellulose suspension containing a test compound (10 mg/kg) (compound administration group, six mice per group) or a 0.5% methyl cellulose suspension (compound non-administration group (vehicle), six mice per group) once a day for one week. The averages and the standard deviations of the body weights at the start of administration and after continuous administration for one week are shown below.

[3] = molecular target: T1, Human recombinant enteropeptidase (Homo sapiens, UniProt P98073); assay: Human enteropeptidase inhibitory activity (Test Example 1); type: biochemical; settings: 3.3 μM test compound, inhibition rate from fluorescence intensity at 2 hours after the start of the reaction; for inhibition at 3.3 µM: read-out: 3.3 μM Inhibition
T1 construct: purchased ITSI-Biosciences LLC #REN-260
Procedure, shortened: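 Recombinant human enteropeptidase in 50 mM Tricine pH 8.0, 0.01% Tween 20, 10 mM CaCl2, with a 5FAM/CPQ2-quenched peptide substrate (2.1 μM solution before mixing). Compound came from 1 mM DMSO stock diluted 100-fold in buffer. Fluorescence (ex 485/em 535 nm) at 2 h gave % inhibition versus no-compound and no-enzyme controls.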

[4] = tested on: High fat diet-fed (HFD-fed) mice; assay: Fecal protein concentration-increasing test using HFD-fed mouse (Test Example 2-2); type: in vivo; settings: male, 47-week old, 10 mg/kg orally, whole feces of first day of administration, average ± standard deviation, five mice
Experimental: as §1, with “47-week” for “19-week”, “five” for “six”, “was” for “was then”

T1 sequence (P98073 whole entry): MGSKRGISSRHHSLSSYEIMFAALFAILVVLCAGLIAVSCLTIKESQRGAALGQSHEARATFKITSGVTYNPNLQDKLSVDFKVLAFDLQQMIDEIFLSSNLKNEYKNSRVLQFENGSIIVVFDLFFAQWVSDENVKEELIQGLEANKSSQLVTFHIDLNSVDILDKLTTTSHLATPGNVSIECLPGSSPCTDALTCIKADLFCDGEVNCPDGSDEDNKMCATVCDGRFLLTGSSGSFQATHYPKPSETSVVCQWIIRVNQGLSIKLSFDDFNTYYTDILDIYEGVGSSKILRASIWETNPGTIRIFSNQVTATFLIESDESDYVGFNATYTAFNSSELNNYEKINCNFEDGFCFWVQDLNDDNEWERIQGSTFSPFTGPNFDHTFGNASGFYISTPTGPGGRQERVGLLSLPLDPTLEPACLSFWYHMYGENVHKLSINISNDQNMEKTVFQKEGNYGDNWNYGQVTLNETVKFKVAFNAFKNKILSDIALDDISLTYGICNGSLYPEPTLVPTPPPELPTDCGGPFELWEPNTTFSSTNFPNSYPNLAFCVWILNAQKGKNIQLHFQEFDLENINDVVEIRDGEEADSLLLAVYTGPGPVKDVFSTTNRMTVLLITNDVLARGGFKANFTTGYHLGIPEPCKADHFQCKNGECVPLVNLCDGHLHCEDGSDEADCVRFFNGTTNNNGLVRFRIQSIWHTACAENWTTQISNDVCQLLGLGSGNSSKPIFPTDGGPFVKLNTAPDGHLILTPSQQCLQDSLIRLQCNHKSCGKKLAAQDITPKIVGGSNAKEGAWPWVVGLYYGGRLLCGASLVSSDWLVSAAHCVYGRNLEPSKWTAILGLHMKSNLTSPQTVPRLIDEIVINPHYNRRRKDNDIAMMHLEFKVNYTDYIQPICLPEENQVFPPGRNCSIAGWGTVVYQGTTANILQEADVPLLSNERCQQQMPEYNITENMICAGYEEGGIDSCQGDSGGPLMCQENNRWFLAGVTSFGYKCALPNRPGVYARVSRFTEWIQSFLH

| SMILES | inhibition at 3.3 µM [3] [%] | Fecal protein concentration (mg/g feces) [4] [mg/g feces] | further results |
| --- | --- | --- | --- |
| N=C(N)Nc1ccc2c(c1)CCCOc1c(cccc1C(=O)N[C@@H](CC(=O)O)C(=O)O)OC2=O [Example 3, N-((10-Carbamimidamido-13-oxo-6,7,8,13-tetrahydrodibenzo[b,f][1,4]dioxecin-4-yl)carbonyl)aspartic acid] |  |  | Fecal protein concentration (mg/g feces) [1]: 233.3 ± 35.9 mg/g feces; Body Weight (g) After continuous administration for one week ([2]; 10 mg/kg orally once a day for one week): 41.4 ± 2.2 g; Body Weight (g) Start of administration ([2]; group given 10 mg/kg orally once a day, baseline): 44.5 ± 2.2 g; 3.3 μM Inhibition [3]: 101% |
| N=C(N)Nc1ccc2c(c1)CCCOc1c(cccc1C(=O)N(Cc1cccc(C(=O)O)c1)[C@@H](CC(=O)O)C(=O)O)OC2=O [Example 136, N-((10-Carbamimidamido-13-oxo-6,7,8,13-tetrahydrodibenzo[b,f][1,4]dioxecin-4-yl)carbonyl)-N-(3-carboxybenzyl)-L-aspartic acid] | 100 | 274.3 ± 74.6 |  |
| N=C(N)c1ccc2c(c1)CCc1c(CCC(=O)N[C@@H](CC(=O)O)C(=O)O)cccc1C(=O)O2 [Example 61, N-(3-(2-Carbamimidoyl-6-oxo-11,12-dihydro-6H-dibenzo[b,f]oxocin-10-yl)propanoyl)-L-aspartic acid trifluoroacetate] | 72 |  |  |
| N=C(N)Nc1ccc2c(c1)CCCOc1c(cccc1C(=O)N(CCC(=O)O)CC(=O)O)OC2=O [Example 64, N-((10-carbamimidamido-13-oxo-6,7,8,13-tetrahydro-dibenzo[b,f] [1,4]dioxecin-4-yl)carbonyl)-N-(carboxymethyl)-beta-alanine] | 101 |  |  |
| N=C(N)Nc1ccc2c(c1)CCCOc1c(cccc1C(=O)N(CC(=O)O)Cc1cccc(C(=O)O)c1)OC2=O [Example 71, 3-((((10-Carbamimidamido-13-oxo-6,7,8,13-tetrahydrodibenzo[b,f][1,4]dioxecin-4-yl)carbonyl) (carboxymethyl)amino)methyl)benzoic acid] | 100 |  |  |
| N=C(N)Nc1ccc2c(c1)CCCOc1c(ccc(CCC(=O)O)c1C(=O)N(CC(=O)O)Cc1cccc(C(=O)O)c1)OC2=O [Example 145, 3-((((10-Carbamimidamido-3-(2-carboxyethyl)-13-oxo-6,7,8,13-tetrahydrodibenzo[b,f][1,4]dioxecin-4-yl)carbonyl) (carboxymethyl)amino)methyl)benzoic acid] | 99 | 201.3 ± 45.3 |  |
| N=C(N)Nc1ccc2c(c1)CCCCc1c(CC(=O)N[C@@H](CC(=O)O)C(=O)O)cccc1OC2=O [Example 32, N-((3-carbamimidamido-14-oxo-5,7,8,14-tetrahydro-6H-dibenzo[b,h]oxecin-9-yl)acetyl)-L-aspartic acid] | 71 |  |  |

Further lines, with some results ahead:

| inhibition at 3.3 µM [3] [%] | SMILES | Fecal protein concentration (mg/g feces) [4] [mg/g feces] | further results |
| --- | --- | --- | --- |
| 101 | N=C(N)Nc1ccc2c(c1)CCCOc1c(cccc1C(=O)N(CCN(CC(=O)O)CC(=O)O)CC(=O)O)OC2=O [Example 120, N-(2-(Bis(carboxymethyl)amino)ethyl)-N-((10-carbamimidamido-13-oxo-6,7,8,13-tetrahydrodibenzo[b,f][1,4]dioxecin-4-yl)carbonyl)glycine] | 194.6 ± 48.1 |  |
| 101 | COc1ccc(C[C@@H](C(=O)O)N(CC(=O)O)C(=O)c2cccc3c2OCCCc2cc(NC(=N)N)ccc2C(=O)O3)cc1 [Example 94, N-((10-Carbamimidamido-13-oxo-6,7,8,13-tetrahydrodibenzo[b,f][1,4]dioxecin-4-yl)carbonyl)-N-(carboxymethyl)-O-methyl-L-tyrosine] | 201.0 ± 21.8 |  |
| 101 | N=C(N)Nc1ccc2c(c1)CCCOc1c(cccc1C(=O)N(CC(=O)O)[C@@H](Cc1ccc(OCCN(CC(=O)O)Cc3ccccc3)cc1)C(=O)O)OC2=O [Example 122, O-(2-(Benzyl(carboxymethyl)amino)ethyl)-N-((10-carbamimidamido-13-oxo-6,7,8,13-tetrahydrodibenzo[b,f][1,4]dioxecin-4-yl)carbonyl)-N-(carboxymethyl)-L-tyrosine] | 165.4 ± 16.2 |  |
| 100 | N=C(N)Nc1ccc2c(c1)CCCOc1c(cccc1C(=O)N(CC(=O)O)[C@@H](Cc1ccc(OCCN(CC(=O)O)CC(=O)O)cc1)C(=O)O)OC2=O [Example 108, O-(2-(Bis(carboxymethyl)amino)ethyl)-N-((10-carbamimidamido-13-oxo-6,7,8,13-tetrahydrodibenzo[b,f][1,4]dioxecin-4-yl)carbonyl)-N-(carboxymethyl)-L-tyrosine] |  |  |

From patent US9975903B2, “Condensed heterocyclic compound” (Takeda Pharmaceutical Company Limited, priority 2014, dated 2018)
